The values that follow come from patent US5081242A, “6-benzoxazinyl- and 6-benzothiazinyl 2,3,4,5-tetrahydropyridazin-3-ones” (Ortho Pharmaceutical Corporation, priority 1991, dated 1992).

In assay [1] the target is cyclic nucleotide phosphodiesterase. As to the kind of experiment: Phosphodiesterase inhibitory activity (cyclic AMP hydrolysis). As to conditions: read-out: IC50 (50% inhibition of cyclic nucleotide phosphodiesterase activity); cyclic AMP 0.10-1.0 μM, pH 7.4. The format is biochemical.
The next assay relates to adult mongrel dogs. As to the kind of experiment: Cardiotonic activity in anesthetized dogs (myocardial contractile force, i.v.). The format is in vivo. As to conditions: Canis lupus familiaris, iv, vs pretreatment control, read-out: CF: Percent increase in cardiac force; for change in vivo at 0.47 mg/kg: i.v. dose 0.47 mpk; for change in vivo at 1.87 mg/kg: i.v. dose 1.87 mpk. As to the method:
The cardiotonic activity of the compounds was determined in accordance with the method of Alousi, A. A., et al., J. Cir. Res. 45, 666 (1979). Basically, adult mongrel dogs were anesthetized with sodium pentobarbital and artificially respired. Arterial pressure was recorded via a femoral artery and the pressure pulse used to trigger a cardiotachometer for heart rate. Left ventricular pressure was measured with a Millar catheter and dP/dt was derived. Cardiac output was determined by measuring ascending aortic blood flow with an electromagnetic flow probe and myocardial contractile force was measured with a Walton Brodie strain gauge sutured to the right ventricle. Lead II EKG was also recorded. A standard does of dopamine was administered to assess myocardial responsiveness. Test compounds were administered by i.v. infusion or bolus administration and the effects on cardiovascular parameters were determined. Dose-related effects of the test compound on BP, HR, dP/dt max., C.F. and C.O. were compared to pretreatment control values and expressed as a percentage change.

What is called IC50 is the midpoint of a concentration-inhibition curve. Turning to `CC1CC(=O)NN=C1c1ccc2c(c1)N(C(C)C)C(=O)C(C)O2` (stereo not drawn) [Example 36, 6-(3,4-Dihydro-2-methyl-4-(1-methylethyl)-3-oxo-1,4(2H)-benzoxazin-6-yl)-2,3,4,5-tetrahydro-5-methylpyridazin-3-one], the IC50 in assay [1] was 24 µM. The change in vivo at 0.47 mg/kg in the assay with adult mongrel dogs was determined as 40%.
Take `CC(=O)N1CCOc2ccc(C3=NNC(=O)CC3)cc21` [Example 13, 6-(4-Acetyl-3,4-dihydro-1,4(2H)-benzoxazin-6-yl)-2,3,4,5-tetrahydropyridazin-3-one]: the IC50 in assay [1] was determined as 100 µM. The change in vivo at 1.87 mg/kg in the assay on adult mongrel dogs stood at 71%.
`O=C1CCC(c2ccc3c(c2)NC(=O)CS3)=NN1` [Example 53, 6-(3,4-Dihydro-3-oxo-1,4[2H]-benzothiazin-6-yl)-2,3,4,5-tetrahydropyridazin-3-one]: in assay [1], the IC50 was 25 µM. In the assay with adult mongrel dogs (i.v. dose 0.075 mpk), the change in vivo at 0.075 mg/kg came out at 21%.
Consider `CC1Oc2ccc(C3=NNC(=O)CC3)cc2N(C)C1=O` (racemic) [Example 25, 6-(3,4-Dihydro-2,4-dimethyl-3-oxo-1,4(2H)-benzoxazin-6-yl)-2,3,4,5-tetrahydropyridazin-3-one], for which the IC50 in assay [1] was found to be 13 µM. Moreover, the change in vivo at 0.47 mg/kg in the assay on adult mongrel dogs worked out at 31%.
Consider `Cc1cc2c(cc1C1=NNC(=O)CC1)N(C)C(=O)C(C)O2` (racemic) [Example 33, 6-(3,4-Dihydro-2,4,7-trimethyl-3-oxo-1,4(2H)-benzoxazin-6-yl)-2,3,4,5-tetrahydropyridazin-3-one], for which, in assay [1], the IC50 was found to be 30 µM. Also, in the assay with adult mongrel dogs, the change in vivo at 0.47 mg/kg stood at 8%.
Turning to `CC(=O)N1CCOc2ccc(C3=NNC(=O)CC3C)cc21` (racemic) [Example 16, 6-(4-Acetyl-3,4-dihydro-1,4(2H)-benzoxazin-6-yl)-2,3,4,5-tetrahydro-5-methylpyridazin-3-one], in assay [1], the IC50 was 30 µM. Besides, the change in vivo at 1.87 mg/kg with adult mongrel dogs came out at 173%.
